Laboratory results published in PMC2785468, “Androgen Receptor Mutations Associated with Androgen Insensitivity Syndrome: A High Content Analysis Approach Leading to Personalized Medicine” (PLoS ONE, 2009).

Biological target: T1, AR-R840C (Homo sapiens, UniProt P10275, R841C)
T1 construct: expressed in transfected cells
T1 sequence (P10275 1-920 R841C): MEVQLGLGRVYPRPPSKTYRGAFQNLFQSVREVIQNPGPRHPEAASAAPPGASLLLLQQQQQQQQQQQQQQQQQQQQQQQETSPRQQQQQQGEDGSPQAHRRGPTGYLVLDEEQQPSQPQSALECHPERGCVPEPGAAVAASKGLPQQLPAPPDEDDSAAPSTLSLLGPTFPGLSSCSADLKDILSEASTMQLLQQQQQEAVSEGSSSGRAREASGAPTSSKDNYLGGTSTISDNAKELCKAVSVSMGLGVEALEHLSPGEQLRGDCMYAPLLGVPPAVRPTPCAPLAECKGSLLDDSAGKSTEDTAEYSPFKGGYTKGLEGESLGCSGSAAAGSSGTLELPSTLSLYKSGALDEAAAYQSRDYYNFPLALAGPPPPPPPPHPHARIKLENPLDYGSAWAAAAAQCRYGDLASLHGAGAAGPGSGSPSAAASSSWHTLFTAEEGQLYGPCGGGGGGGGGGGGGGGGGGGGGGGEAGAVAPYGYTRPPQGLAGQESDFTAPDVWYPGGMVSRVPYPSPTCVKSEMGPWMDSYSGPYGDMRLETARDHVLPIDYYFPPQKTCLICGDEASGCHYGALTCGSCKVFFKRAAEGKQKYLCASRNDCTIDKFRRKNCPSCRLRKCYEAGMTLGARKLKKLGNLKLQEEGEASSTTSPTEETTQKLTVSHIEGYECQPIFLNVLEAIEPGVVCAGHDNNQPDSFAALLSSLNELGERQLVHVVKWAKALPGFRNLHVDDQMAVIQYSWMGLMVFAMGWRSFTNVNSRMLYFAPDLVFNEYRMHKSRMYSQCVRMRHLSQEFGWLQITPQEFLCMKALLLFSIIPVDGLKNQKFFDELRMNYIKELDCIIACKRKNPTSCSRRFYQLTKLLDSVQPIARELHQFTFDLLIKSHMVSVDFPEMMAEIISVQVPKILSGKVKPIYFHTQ
Format: cell-based
Description: To determine the global effect of the various AIS mutations on AR signaling, each was analyzed using HCA. This technology allows simultaneous quantification of AR protein expression, nuclear translocation, subnuclear patterning, and transcriptional activity. The analysis was done in HeLa cell lines stably transfected with wild type or mutant ARs fused with green fluorescent protein, or using AR immunofluorescence in primary cultures of genital skin fibroblasts generated from foreskin biopsies of historical AIS patients, or of normal neonates undergoing circumcision at birth. To prevent the effects of receptor over-expression, stable HeLa cells were carefully selected to express AR levels similar to LNCaP as previously described. Prior to ligand treatment, HeLa cells were transfected with the pARR2PB-dsRED2skl reporter plasmid, consisting of the AR responsive promoter ARR2PB [31] driving expression of the red fluorescent protein reporter dsRED2skl engineered to target peroxisomes.
For studies utilizing HeLa GFP-AR cell lines, twenty-four hours before transfection with pARR2PB-dsRED2skl, cells were plated onto 100 mm plastic dishes in medium supplemented with 5% charcoal-stripped and dialyzed-FBS. Transient introduction of the pARR-2PB-dsRED2skl reporter construct was performed using 6.0 µg reporter plasmid and 6.0 µg carrier DNA (BlueScript, Stratagene, San Diego, CA) using Transfectin (Biorad) following standard protocols. After 8-hour incubation, DNA/lipid complexes were removed. Cells were then trypsinized and replated at 10,000 cells per well in Nunc poly-D-lysine treated 96-well optical glass bottom plates and incubated an additional 12 hours to allow for cell adhesion. […] Compound dilutions and final addition to multi-well plates were performed using a Beckman Biomek NX robotic platform to ensure repeatability from experiment to experiment. After incubation was complete, using the Biomek NX robot, plates were washed with PBS and fixed for 20 min at RT in 4% formaldehyde prepared in CSK buffer (80 mM potassium PIPES, pH 6.8, 5 mM EGTA, 2 mM MgCl2). After fixation, cells were briefly permeabilized (5 min) with 0.5% Triton-X and prepared for imaging by washing in PBS, aspirating the washed solution, and adding a 1 ng/ml DAPI solution to stain DNA and a generic protein stain (CellMask, Invitrogen) to facilitate cell and nuclear image segmentation. Cells were imaged in PBS.
Cells were imaged using the Cell Lab IC-100 Image Cytometer (IC-100; Beckman Coulter) platform that consists of 1) Nikon Eclipse TE2000-U Inverted Microscope (Nikon; Melville, NY); 2) Chroma 82000 triple band filter set (Chroma; Brattleboro, VT); 3) an imaging camera: Hamamatsu ORCA-ER Digital CCD camera (Hamamatsu; Bridgewater, NJ); and 4) a focusing camera: Photonics COHU Progressive scan camera (Photonics; Oxford, MA). […] In general, 49 to 64 images were captured per well for image analysis.
While our initial AR studies using HTM were based upon CytoShop (Beckman-Coulter), [15], [33], these approaches were refined in the current work with the more robust server-client Pipeline Pilot image analysis platform (Basic and Advanced Imagine Collections, Pipeline Pilot 7.5, Accelrys, San Diego). Initially, the background signal was removed from all images using plate- and channel-specific correction images, generated by the sum projection of >600 randomly selected images for each channel from the image set. This allows for a pixel-by-pixel background subtraction that compensates any consistent uneven background artifacts in the image set. Furthermore, users are able to customize the degree of background subtraction by applying a multiplier to each correction image, useful for identification of objects such as nuclei or cell borders. After background subtraction, nuclear masks were generated using a combination of non-linear least squares and watershed-from-markers image manipulations of the DAPI images (Fig. 1B).

`C[C@@H]1CC2=CC(=O)CC[C@@H]2[C@H]2CC[C@@]3(C)[C@@H](CC[C@]3(C)O)[C@@H]21` [Mb, Mibolerone] was tested, and the hyperspeckling (HeLa AR-R840C) was 8 fold increase, the transcriptional activation (HeLa AR-R840C) was 11 fold and the “increase in nuclear translocation” value (HeLa AR-R840C, vs untreated) was 29%. For the same compound, the “Nuclear Translocation, Max” value (HeLa R840C, % signal present in the nucleus) was 63.7±1.1%, the “Hyperspeckling, Max” value (HeLa R840C, absolute numerical measurement) was 269±20 and the “Transcriptional Activity, Max” value (HeLa R840C, pARR2PB-dsRED2skl reporter, absolute numerical measurement) was 35.3±1.4.
